# Measured values as given in patent publication US20030003050A1 (priority 2001, published 2003).
# Legend:
# B6μ, Heμ and CXμ mice [1] = experiment: hot-plate test; format: in vivo, mouse; conditions: CXμ mice vs B6μ and Heμ littermates; 10 mg/kg intraperitoneal; 20 minutes after injection; plate 52.0°C; p<0.05
# B6μ, Heμ and CXμ mice [2] = conditions: mouse, in vivo, ip, 10 mg/kg
smiles,measurement,setting,value
"CN1CC[C@]23c4c5ccc(O)c4O[C@H]2[C@@H](O)C=C[C@H]3[C@H]1C5.Cl [morphine, Morphine hydrochloride]","latency of response to heat stimulus (first jumping; drug-induced analgesia), hot-plate test","B6μ, Heμ and CXμ mice [1]",significantly shorter latency than the littermates
same,"latency of response to heat stimulus (drug-induced analgesia), tail-flick test","B6μ, Heμ and CXμ mice [2]",significantly shorter latency than the littermates
